According to BigSolDB 2.1:

CC(C)C(=O)Nc1ccc([N+](=O)[O-])c(C(F)(F)F)c1
solubility (mole fraction)
Settings | 278.15 K | 283.15 K | 288.15 K | 293.15 K | 298.15 K | 303.15 K | 308.15 K | 313.15 K | 318.15 K | 323.15 K
in 1,4-dioxane | – | 0.12 | 0.139 | 0.16 | 0.184 | 0.21 | 0.239 | 0.272 | 0.307 | 0.338
in acetonitrile | 0.0592 | 0.0749 | 0.0939 | 0.115 | 0.144 | 0.177 | 0.217 | 0.262 | 0.314 | 0.375
in ethanol | 0.0365 | 0.0435 | 0.0522 | 0.0617 | 0.0728 | 0.0858 | 0.1 | 0.116 | 0.136 | 0.156
in isopropanol | 0.0583 | 0.0664 | 0.0756 | 0.0861 | 0.0979 | 0.11 | 0.125 | 0.14 | 0.155 | 0.176
in water | 2.41e-07 | 3.17e-07 | 4.02e-07 | 5.23e-07 | 6.68e-07 | 8.38e-07 | 1.07e-06 | 1.32e-06 | 1.65e-06 | 2.06e-06
